Read-outs that look alike come from different tables or passages of the source.

Common to all, as to format: biochemical
Experiment [1] deals with T1, Rat recombinant PDE10A (rPDE10A2) (Rattus norvegicus, UniProt Q9QYJ6).
T1 construct: His tag (inferred from metal chelate purification); made in house; host or cells: Sf9 insect cells (baculovirus)
T1 sequence (Q9QYJ6 1-794): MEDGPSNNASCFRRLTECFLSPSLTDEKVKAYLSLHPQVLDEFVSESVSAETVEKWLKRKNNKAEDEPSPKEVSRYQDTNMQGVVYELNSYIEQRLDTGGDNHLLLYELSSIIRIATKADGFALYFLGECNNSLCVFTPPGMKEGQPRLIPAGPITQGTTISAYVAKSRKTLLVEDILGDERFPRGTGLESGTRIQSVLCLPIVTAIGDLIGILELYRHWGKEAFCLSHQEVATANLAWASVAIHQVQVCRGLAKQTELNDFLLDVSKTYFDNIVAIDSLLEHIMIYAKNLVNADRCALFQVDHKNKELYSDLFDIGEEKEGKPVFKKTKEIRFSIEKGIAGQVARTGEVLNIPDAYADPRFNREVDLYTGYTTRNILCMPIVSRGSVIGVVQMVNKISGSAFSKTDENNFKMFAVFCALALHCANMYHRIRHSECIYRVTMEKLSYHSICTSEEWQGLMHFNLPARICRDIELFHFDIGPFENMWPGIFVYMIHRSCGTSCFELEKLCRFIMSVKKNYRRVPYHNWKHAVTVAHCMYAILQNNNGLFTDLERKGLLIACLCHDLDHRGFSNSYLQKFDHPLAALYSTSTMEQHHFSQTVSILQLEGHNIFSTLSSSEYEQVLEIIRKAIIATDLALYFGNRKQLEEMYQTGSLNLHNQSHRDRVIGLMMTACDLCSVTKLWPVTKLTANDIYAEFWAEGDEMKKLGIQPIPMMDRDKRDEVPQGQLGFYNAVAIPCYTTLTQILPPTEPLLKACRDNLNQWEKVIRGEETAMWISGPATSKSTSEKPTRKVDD
Nature of the experiment: In vitro assay PDE10A, rat clone (SPA, 3H-cAMP hydrolysis). As for the experimental part:
Rat recombinant PDE10A (rPDE10A2) was expressed in Sf9 cells using a recombinant rPDE10A baculovirus construct. Cells were harvested after 48 h of infection and the rPDE10A protein was purified by metal chelate chromatography on Ni-sepharose 6FF. Tested compounds were dissolved and diluted in 100% DMSO to a concentration 100 fold of the final concentration in the assay. Human recombinant PDE10A ([…]) was expressed in Sf9 cells using a recombinant hPDE10A baculovirus that was made and amplified in house. Cells were harvested after 72 h of infection and the hPDE10A protein was purified by metal chelate chromatography on Ni-sepharose. Compound dilutions (0.4 μl) were added in 384 well plates to 20 μl of incubation buffer (50 mM Tris pH 7.8, 8.3 mM MgCl2, 1.7 mM EGTA). 10 μl of rPDE10A or hPDE10A enzyme in incubation buffer was added and the reaction was started by addition of 10 μl substrate to a final concentration of 60 nM cAMP and 0.008 μCi ^3H-cAMP. The reaction was incubated for 60 minutes at room temperature. After incubation, the reaction was stopped with 20 μl of stop solution consisting of 17.8 mg/ml PDE SPA (scintillation proximity assay) beads. After sedimentation of the beads during 30 minutes the radioactivity was measured in a Perkin Elmer Topcount scintillation counter and results were expressed as cpm. For blanc values the enzyme was omitted from the reaction and replaced by incubation buffer. Control values were obtained by addition of a final concentration of 1% DMSO instead of compound. A best fit curve is fitted by a minimum sum of squares method to the plot of % of control value subtracted with blanc value versus compound concentration and the half maximal inhibitory concentration (IC50) value is derived from this curve.

Experiment [2] deals with T2, Human recombinant PDE10A (hPDE10A) (Homo sapiens, UniProt Q9Y233).
T2 construct: His tag (inferred from metal chelate purification); made in house; host or cells: Sf9 insect cells (baculovirus)
T2 sequence (Q9Y233 267-1055): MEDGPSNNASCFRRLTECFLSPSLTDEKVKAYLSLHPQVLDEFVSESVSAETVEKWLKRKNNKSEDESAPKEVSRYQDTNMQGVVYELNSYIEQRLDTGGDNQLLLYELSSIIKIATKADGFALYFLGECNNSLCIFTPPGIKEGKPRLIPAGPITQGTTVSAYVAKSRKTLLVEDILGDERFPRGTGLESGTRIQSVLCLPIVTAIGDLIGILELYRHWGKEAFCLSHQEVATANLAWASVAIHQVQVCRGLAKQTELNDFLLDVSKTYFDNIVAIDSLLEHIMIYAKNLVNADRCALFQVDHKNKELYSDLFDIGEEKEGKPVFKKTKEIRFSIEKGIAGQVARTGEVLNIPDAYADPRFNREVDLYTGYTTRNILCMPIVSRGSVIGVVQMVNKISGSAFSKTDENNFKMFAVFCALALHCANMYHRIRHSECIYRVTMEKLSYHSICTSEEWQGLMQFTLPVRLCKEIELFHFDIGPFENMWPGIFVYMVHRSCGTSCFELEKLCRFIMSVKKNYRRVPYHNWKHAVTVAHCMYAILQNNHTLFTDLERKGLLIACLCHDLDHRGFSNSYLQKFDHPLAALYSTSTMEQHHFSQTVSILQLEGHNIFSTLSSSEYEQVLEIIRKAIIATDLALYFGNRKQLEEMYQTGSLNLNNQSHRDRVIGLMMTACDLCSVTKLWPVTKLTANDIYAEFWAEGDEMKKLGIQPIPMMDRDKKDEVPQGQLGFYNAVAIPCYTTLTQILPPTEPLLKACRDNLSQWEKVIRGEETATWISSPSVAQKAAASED
Put plainly: In vitro assay PDE10A, human clone (SPA, 3H-cAMP hydrolysis). The following applies: human clone (h), default. In short, it runs like this:
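Hydrolysis of 3H-cAMP (60 nM cAMP, 0.008 μCi tracer) proceeded for 60 min at room temperature, with the product detected by SPA bead scintillation counting. The enzyme was hPDE10A from baculovirus-infected Sf9 cells in Tris pH 7.8 buffer with MgCl2 and EGTA, and compounds were at 1% DMSO final. Blanks lacked enzyme.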

Experiment [3] concerns the target T3, Human recombinant PDE2A (hPDE2A) (Homo sapiens, UniProt O00408).
T3 construct: His tag (inferred from metal chelate purification); made in house; host or cells: Sf9 insect cells (baculovirus)
Nature of the experiment: In vitro assay PDE2A (SPA, 3H-cGMP hydrolysis). As to conditions: for IC50: read-out: hPDE2A pIC50 (converted); for Emax: read-out: hPDE2A Emax.

T3 sequence (O00408 whole entry): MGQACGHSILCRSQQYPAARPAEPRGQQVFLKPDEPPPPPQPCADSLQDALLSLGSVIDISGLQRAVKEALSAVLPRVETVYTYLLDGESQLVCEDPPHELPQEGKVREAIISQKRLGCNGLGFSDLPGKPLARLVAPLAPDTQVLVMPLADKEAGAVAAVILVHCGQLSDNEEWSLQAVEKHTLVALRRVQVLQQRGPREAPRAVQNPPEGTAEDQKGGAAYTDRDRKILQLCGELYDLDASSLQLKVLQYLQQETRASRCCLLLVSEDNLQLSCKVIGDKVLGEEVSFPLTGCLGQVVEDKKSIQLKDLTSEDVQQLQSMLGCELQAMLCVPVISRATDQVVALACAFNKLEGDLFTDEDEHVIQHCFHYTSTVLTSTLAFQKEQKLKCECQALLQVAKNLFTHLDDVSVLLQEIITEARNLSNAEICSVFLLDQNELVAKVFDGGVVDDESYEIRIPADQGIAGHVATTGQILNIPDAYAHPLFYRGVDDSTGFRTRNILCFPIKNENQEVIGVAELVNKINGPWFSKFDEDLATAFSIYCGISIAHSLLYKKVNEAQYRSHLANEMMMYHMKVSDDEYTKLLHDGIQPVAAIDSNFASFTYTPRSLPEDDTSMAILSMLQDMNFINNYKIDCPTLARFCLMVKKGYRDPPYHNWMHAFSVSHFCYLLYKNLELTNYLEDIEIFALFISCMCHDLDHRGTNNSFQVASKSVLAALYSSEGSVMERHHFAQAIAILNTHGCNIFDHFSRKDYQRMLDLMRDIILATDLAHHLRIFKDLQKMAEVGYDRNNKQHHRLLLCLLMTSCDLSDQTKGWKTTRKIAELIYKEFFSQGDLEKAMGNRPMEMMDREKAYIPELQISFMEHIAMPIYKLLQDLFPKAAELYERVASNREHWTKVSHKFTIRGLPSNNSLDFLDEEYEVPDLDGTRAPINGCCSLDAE

By Emax is commonly meant the greatest response seen or fitted, relative to the assay's reference. `C[C@@H]1CCN(C(=O)c2ccc3c(ccn3CCF)c2)C[C@H]1c1cc(C(F)F)nc2ncnn12` [Compound 89]: the Emax in experiment [1] (rat clone (r)) came to 98%; in experiment [2] (read-out: hPDE10A2 Emax), 101%; in experiment [3] (human recombinant PDE2A), 104%; in experiment [3] it was 104%. Moreover, the IC50 in experiment [1] (rat clone (r), read-out: rPDE10A2 pIC50 (converted)) was 12 nM; in experiment [2] (read-out: hPDE10A2 pIC50 (converted)), 20.9 nM; in experiment [3] (human recombinant PDE2A, 10 μM cGMP substrate), 0.229 nM; in experiment [3], 0.229 nM. For the same molecule, the “rPDE10A2 pIC50” value in experiment [1] (rat clone, indicated as (r)) was 7.92 (r).

The values above are taken from patent publication US10947242B2, “[1,2,4]triazolo[1,5and#8208;A]pyrimidine compounds as PDE2 inhibitors” (Janssen Pharmaceutica NV, priority 2016, dated 2021).
